Measurements published in US20210254056A1, “IDENTIFICATION AND TARGETED MODULATION OF GENE SIGNALING NETWORKS” (CAMP4 THERAPEUTICS CORPORATION, priority 2017, published 2021).
Entries after “also recorded” stand apart in the source; their conditions may differ.

Columns and labels:
COL1A1 gene = assay: RNA-seq gene expression after compound treatment, COL1A1; type: cell-based, human; details: FIG. 11B; gene implicated in liver fibrosis
Excerpt: FIG. 11B are ChIP-seq results for an insulated neighborhood and RNA-seq results showing modulation of the COL1A1 gene implicated in liver fibrosis by BIO inhibitor (MT-209), a Wnt pathway agonist.
(§1) In certain embodiments, hepatocytes are used to map a healthy cell population. The liver is a source of many known genetic disease and provides homogeneous primary tissue with high availability. Additionally, most toxicology is done in the liver, which provides drug toxicity insights. In some embodiments, different stimuli, such as those described herein, are contacted with a cell to induce various GSC responses in the hepatocytes. For example, small molecules may be administered to identify liver disease genes whose expression is modulated by the small molecules. These responses provide an understanding of GSCs in liver cells: genomic positions, protein composition, and genome architecture. Alternatively, blood or muscle tissue may be mapped as a healthy population, as a disease model, or as primary disease cells. About 20 million cells are generally needed for accurate ChIP (chromatin immunoprecipitation) analysis. Therefore, in some embodiments, erythroid cells may be used to develop a conditionally immortalized cell system to produce a sufficient biomass for ChIP analysis of a cell with a disease phenotype.

hepatocytes = details: {}
PCSK9 gene = assay: RNA-seq gene expression after compound treatment, PCSK9; type: cell-based, human; details: FIG. 11C and FIG. 13; gene implicated in hypercholesterolemia
Excerpt: as §1

[1] = tested on: primary human hepatocytes; assay: RNA-seq of primary human hepatocytes treated with 39 small molecules (pilot and validation)
FKBP5 = assay: RNA-seq gene expression after compound treatment, insulated neighborhood including FKBP5; type: cell-based, human; details: FIG. 11A; gene implicated in immunosuppression
Excerpt: as §1

SLC37A4 gene = assay: RNA-seq gene expression after compound treatment, insulated neighborhood containing SLC37A4; type: cell-based, human; details: FIG. 8; gene implicated in glycogen storage disease 1b
[2] = tested on: normal cord blood erythroblast cells; assay: qRT-PCR after constitutive (pLKO) shRNA knockdown in normal CD34+ cells; type: cell-based, human; details: for RQ, ALAS2: relative quantification of ALAS2 expression vs control sh_NT; for RQ, BCLXL: relative quantification of BCLXL expression vs control sh_NT; for RQ, MYC: relative quantification of MYC expression vs control sh_NT; for RQ, P53: relative quantification of P53 expression vs control shNT; for RQ, RPL11: relative quantification of RPL11 expression vs control shNT; for RQ, p21: relative quantification of p21 expression vs control sh_NT; for RQ, p53: relative quantification of p53 expression vs control sh_NT; for increase in expression of p21: pLKO constitutive knockdown, compared to the level observed for the p53 knockdowns, qRT-PCR
Description: Conditionally immortalized cord blood CD34+ cells were transduced with the shRNA lentiviruses using the retronectin-transduction protocol (Clontech). Puromycin selection was performed 24-48 hours post-transduction. Cells were counted to monitor cell viability. After 12 days, which allowed for a large biomass, knockdown efficiency was analyzed. qRT-PCR was used to identify changes in mRNA, and Western blot was used to determine levels of protein depletion.
(§2) For RNA extraction, 1×10^6 cells were harvested in 500 μL of TRIZOL reagent (Thermo Scientific), and incubated for 5 minutes at room temperature. Then, 100 μL of chloroform was added to the cells, and the mixture was vortexed and then centrifuged at 12,000× gravity for 15 minutes. The aqueous phase was transferred to fresh tubes and one volume of 70% ethanol was added. The TRIZOL Plus RNA purification Kit (Thermo Scientific) was used for the remaining extraction protocol according to the manufacturer's instructions. For the conversion of RNA to cDNA the High Capacity cDNA RT kit (Thermo Scientific) was used according to the manufacturer's instructions. The cDNA was analyzed with qRT-PCR to determine the fold change of knockdown cells using Taqman Fast PCR mix and Applied Biosystems probes (Thermo Scientific).
shRNAs targeting RPS19, p53, or RPL11 were delivered to normal cord blood erythroblast cells using either the pLKO (constitutive) and pTRIPZ (inducible) plasmids described in Example 1. The mRNA expression of the p53 pathway proteins; progenitor factor GATA2; and differentiation factors HBB and GATA1 were measured by qRT-PCR. Cells not transduced with a shRNA as well as cells transduced with a non-targeting shRNA served as controls.
HBB is associated with differentiation of CD34^+ cells, and p21 is associated with the p53 pathway. […]
To determine the effect of p53 knockdown on expression of other genes, cells were also transduced with pLKO containing p53_sh4 or p53_sh5. To determine the effect of RPS19 knockdown on expression of other genes, cells were transduced with pLKO containing RPS19_sh1, RPS19_sh2, RPS19_sh3, RPS19_sh4, RPS19_sh5, and sh_NT as a control. The relative quantifications of expression of differentiation associated genes ALAS2 and HBB, immortalization factors BCLXL and MYC, and targets of interest p53 and RPS19 are shown in Table 79.

[3] = tested on: CB-CI-IRES-CD34+ cell line; assay: qRT-PCR and knockdown efficiency of shRNAs in conditionally immortalized cord blood CD34+ cells; type: cell-based, human; details: qRT-PCR; CB-CI-IRES-CD34+ cells transduced with pTRIPZ shRNA; B-ACTIN control; relative to pTRIPZ NT
Description: as §2
qRT-PCR was used to analyze expression of p53 pathway-associated genes p21, RPS19, and RPL11; differentiation marker HBB; and internal control B-ACTIN in the cord blood conditionally immortalized CD34+ (CB-CI-IRES-CD34+) cell line transduced with the pTRIPZ plasmid containing NT (Model 9), RPL11_sh1 (Model 4) and RPL11_sh2 (Model 5) for a RPL11 knockdown, and RPS19_sh1 (Model 6) and RPS19_sh2 (Model 7) for a RPS19 knockdown.
qRT-PCR was used to determine the levels of expression of ALAS2, GAPDH, GATA1, GATA2, HBB, and p53 in differentiated CB-CI-IRES cells using GAPDH as an internal control as shown in Table 86.
Gene expression was compared for CB-CI-IRES cells during expansion and differentiation. […] GAPDH was used as an internal control.
The efficiency of different shRNAs were tested in a conditionally immortalized cord blood erythroblast cell system to mimic DBA. The pTRIPZ was used to transduce these cells with sh1 (dox inducible shRPS19) or sh2 (dox inducible shRPS19), and pLKO was used to transduce a group of cells with sh5 (shRPS19). qRT-PCR was used to determine the level of gene expression in RPS19 mRNA knockdown in each group of cells. The percent of knockdown is shown in Table 90 after 1 week (T1), 2 weeks (T2), and 3 weeks (T3) for each shRNA.

TF1 RPS19 KD cells = assay: Dose titration of compounds into RPS19 KD TF1 cells (p53 by qRT-PCR, viability ATP assay); type: cell-based; details: after transduction with constitutive pLKO shRNA plasmid
Description: The concentration of the compounds needed to observe a rescued DBA phenotype in TF1 RPS19 KD cells was determined via qRT-PCR analysis of p53 levels. […] Nine different cell lines were used. […] Cells were collected in separate tubes in a concentration of 1000 cells/μL to reach a concentration of 50,000 cells/50 μL per well. Cell were centrifuged at 1,200 rpm for 5 minutes. Then, the media was aspirated and cells were resuspended in RPMI+GCMSF medium.
For the preparation of Dose 1 (final concentration on plate 25 μM), a 50 μM solution was made by adding 300 μL of […] to 300 μL of RPM1+GCMSF+2% DMSO (final 1% DMSO). The 50 μM solution was further diluted to 2× when added with the cells into a well, resulting in a final concentration of 25 μM. […] DMSO 1% was used for each cell type as DMSO control.
A 96-well plate was used for analysis of each dose on each cell type. Fifty μL of each cell type and 50 μL of a diluted compound are added to the corresponding wells for a total of 100 μL RPMI+GCMSF+1% DMSO, with 50,000 cells/well. The following day, 50 μL for RNA (25,000 cells) and 50 μL for viability ATP assay (25,000 cells) were collected from each well.
Dose titration was performed as described in Example 1. […] Phenotype rescue was determined by measuring p53 levels by qRT-PCR analysis. […]

[4] = relative quantification of HBB expression vs control shNT, pLKO constitutive shRNA, GAPDH internal control, Table 78
[5] = relative quantification of HBB expression vs control sh_NT, pLKO shRNA, B-ACTIN, Table 79
[6] = pLKO constitutive shRNA, GAPDH internal control, Table 78
[7] = relative quantification of RPS19 expression vs control shNT, pLKO constitutive shRNA, GAPDH internal control, Table 78
[8] = relative quantification of RPS19 expression vs control sh_NT, pLKO shRNA, B-ACTIN, Table 79

Compound: O=C1Nc2cc(Br)ccc2/C1=C1/Nc2ccccc2/C1=N\O [BIO inhibitor]
- expression of the COL1A1 gene (RNA-seq) (COL1A1 gene): modulation

Compound: Cn1cncc1[C@@](N)(c1ccc(Cl)cc1)c1ccc2c(c1)c(-c1cccc(Cl)c1)cc(=O)n2C [Tipifarnib]
- # of genes having significantly altered expression (hepatocytes): 34

Compound: C[C@]12C=CC(=O)C=C1CC[C@@H]1[C@@H]2C(=O)C[C@@]2(C)[C@H]1CC[C@]2(O)C(=O)CO [prednisone]
- expression of the PCSK9 gene (RNA-seq) (PCSK9 gene): modulation
- significant modulation of gene expression ([1]; RNA-seq, p-value≤0.05, primary human hepatocytes, the modulated genes are listed in the block): significantly (p-value≤0.05) modulate
- gene upregulated by the compound ([1]; RNA-seq, treated cells compared to vehicle control, gene named in the value): upregulate the SLC37A4 gene; also recorded: SLC37A4 was significantly upregulated; also recorded: upregulate FKPP5
- Number (#) of genes having significantly changed expression ([1]; pilot RNA-seq study of Example 2, significance: FPKM≥0.5, log 2(fold change)≥1, q-value ≤0.05): 247
- expression of FKBP5 (RNA-seq) (FKBP5): upregulates
- expression of the SLC37A4 gene (RNA-seq) (SLC37A4 gene): upregulation

Compound: RPS19_sh1 (CTACGATGAGAACTGGTTCT; expressed or natural sequence; listed as Homo sapiens)
- RQ, ALAS2 ([2]; pLKO shRNA, B-ACTIN, Table 79): 0.02
- RQ, BCLXL ([2]; pLKO shRNA, B-ACTIN, Table 79): 0.34
- RQ, HBB [2, 4]: 0.04
- RQ, HBB [2, 5]: 0.00
- RQ, MYC ([2]; pLKO shRNA, B-ACTIN, Table 79): 0.52
- RQ, P53 [2, 6]: 1.34
- RQ, RPL11 [2, 6]: 0.74
- RQ, RPS19 [2, 7]: 0.59
- RQ, RPS19 [2, 8]: 0.47
- RQ, p21 ([2]; pLKO shRNA, B-ACTIN, Table 79): 0.53
- RQ, p53 ([2]; pLKO shRNA, B-ACTIN, Table 79): 0.65
- RQ of HBB [3]: 2.28
- RQ of RPL11 [3]: 1.52
- RQ of p21 [3]: 1.35

Compound: RPS19_sh4: shRNA targeting RPS19 in the constitutive pLKO plasmid, SEQ ID NO 32575 (GCTTGCTCCCTACGATGAGAA; listed as Homo sapiens)
- increase in expression of p21 [2]: 12.8 fold
- RQ, ALAS2 ([2]; pLKO shRNA, B-ACTIN, Table 79): 0.16
- RQ, BCLXL ([2]; pLKO shRNA, B-ACTIN, Table 79): 0.87
- RQ, HBB [2, 4]: 0.42
- RQ, HBB [2, 5]: 0.03
- RQ, MYC ([2]; pLKO shRNA, B-ACTIN, Table 79): 1.03
- RQ, P53 [2, 6]: 1.24
- RQ, RPL11 [2, 6]: 1.02
- RQ, RPS19 [2, 7]: 1.54
- RQ, RPS19 [2, 8]: 0.43
- RQ, p21 ([2]; pLKO shRNA, B-ACTIN, Table 79): 12.78
- RQ, p53 ([2]; pLKO shRNA, B-ACTIN, Table 79): 1.74
- Cell density (TF1 RPS19 KD cells): 124,000 cells/mll

Compound: RPS19_sh5: shRNA targeting RPS19 in the constitutive pLKO plasmid, SEQ ID NO 32576 (CGGCGTCATGCCCAGCCACTT; listed as Homo sapiens)
- increase in expression of p21 [2]: 5.8 fold
- RQ, ALAS2 ([2]; pLKO shRNA, B-ACTIN, Table 79): 1.51
- RQ, BCLXL ([2]; pLKO shRNA, B-ACTIN, Table 79): 0.99
- RQ, HBB [2, 4]: 0.75
- RQ, HBB [2, 5]: 0.15
- RQ, MYC ([2]; pLKO shRNA, B-ACTIN, Table 79): 1.43
- RQ, P53 [2, 6]: 1.41
- RQ, RPL11 [2, 6]: 1.09
- RQ, RPS19 [2, 7]: 0.65
- RQ, RPS19 [2, 8]: 0.15
- RQ, p21 ([2]; pLKO shRNA, B-ACTIN, Table 79): 5.75
- RQ, p53 ([2]; pLKO shRNA, B-ACTIN, Table 79): 0.74
- Cell density (TF1 RPS19 KD cells): 962,000 cells/mll
